Assay results taken from US4255575A, “2-Hydroxy-5-(1-hydroxy-2-piperazinylethyl)-benzoic acid derivatives” (priority 1979, dated 1981).

Experiments:
[1] = tested on: α-adrenergic receptor; assay: α-adrenergic receptor blocking activity in vitro, isolated rabbit aortic strip, norepinephrine agonist; assay type: cell-based
Protocol: (§1) α-Adrenergic receptor blocking activity is determined in vitro by performing cumulative dose-response experiments in the isolated rabbit aortic strip preparation using norepinephrine as the agonist. The contractile response of the rabbit strip preparation in the presence of logarithmically increasing concentrations of the compounds being tested are expressed as percent of the maximal attainable […]. Relative antagonistic potency is expressed as a pA2 value.

[2] = target: T1, β-adrenergic receptor (Cavia porcellus, UniProt H0W3H1); assay: β-adrenergic receptor blocking activity in vitro, isolated guinea pig atria, isoproterenol agonist; assay type: cell-based; settings: for Kb: read-out: pA2 β (converted)
T1 construct: isolated guinea pig atria preparation; from tissue; host or cells: isolated guinea pig atria
T1 sequence (H0W3H1 1-470): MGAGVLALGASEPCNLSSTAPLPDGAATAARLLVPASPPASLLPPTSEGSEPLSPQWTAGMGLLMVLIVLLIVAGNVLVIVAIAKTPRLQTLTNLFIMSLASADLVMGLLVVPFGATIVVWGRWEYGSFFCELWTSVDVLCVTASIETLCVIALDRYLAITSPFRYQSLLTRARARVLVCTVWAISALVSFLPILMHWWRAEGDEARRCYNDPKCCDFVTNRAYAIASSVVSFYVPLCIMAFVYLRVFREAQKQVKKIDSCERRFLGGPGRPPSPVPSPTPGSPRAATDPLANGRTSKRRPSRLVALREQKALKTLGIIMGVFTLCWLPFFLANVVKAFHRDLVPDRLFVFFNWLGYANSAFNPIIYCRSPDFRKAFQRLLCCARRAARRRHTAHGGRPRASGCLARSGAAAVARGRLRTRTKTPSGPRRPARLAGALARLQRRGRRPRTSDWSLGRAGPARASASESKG
Protocol: as §1
β-Adrenergic receptor blocking activity is determined in vitro by performing cumulative dose-response experiments in the isolated guinea pig atria preparation using isoproterenol as the agonist. The response (increase in rate) of the guinea pig atria preparation in the presence of logarithmically increasing concentrations of the compounds being tested are expressed as percent of the maximal attainable response. Relative antagonistic potency is expressed as a pA2 value, as defined above.

[3] = tested on: guinea pig ileum; assay: direct spasmolytic activity in vitro, isolated guinea pig ileum, barium chloride agonist; assay type: cell-based
Protocol: as §1, with “value. […] Direct spasmolytic activity is determined in vitro by performing cumulative dose response experiments in the isolated guinea pig ileum preparation using barium chloride as the agonist. The contractile response of the guinea pig ileum preparation in the presence of logarithmically increasing concentrations of the compounds being tested are expressed as percent of the maximal attainable response. Relative antagonistic potency is expressed as a pA2 value, as defined above.” for “value.”

[4] = tested on: spontaneously hypertensive rats (SHR); assay: antihypertensive activity in spontaneously hypertensive rats, systolic blood pressure; assay type: in vivo, rat; settings: 50 mg/kg per os
Protocol: Antihypertensive activity is determined in spontaneously hypertensive rats (SHR) of the Okomoto-Aoki strain. Systolic blood pressure of the SHR is measured from the caudal artery by means of an indirect method utilizing a photocell transducer/tail cuff occluder system. Time response relationships are determined for each compound following an oral dose of 50 mg/kg. Data are expressed as mm of Hg decrease from control values. Statistical significance is determined using a 2 tailed "t" test comparing drug treatment response values to those obtained from concurrent vehicle treated animals.

[5] = tested on: α-adrenergic receptor; assay: α-adrenergic receptor blocking activity in vivo, anesthetized dog, phenylephrine agonist; settings: iv
Protocol: (§2) α-Adrenergic receptor blocking activity is determined in vivo by performing cumulative dose-response experiments in the anesthetized dog using phenylephrine as the agonist. The increase in diastolic blood pressure produced by phenylephrine is determined in the absence and again in the presence of logarithmically increasing doses of the test compound. Relative antagonistic potency is expressed as DR10. DR10 is defined as the negative logarithm of the dose of the antagonist which increased by 10 times the dose of agonist necessary to produce 50% of the maximal attainable response.

[6] = tested on: β-adrenergic receptor (β1); assay: β-adrenergic receptor blocking activity in vivo, isoproterenol agonist, increase in cardiac rate (β1); settings: anesthetized dog, iv
Protocol: as §2, with “response. […] Two responses, increase in cardiac rate (β1) and decrease in diastolic blood pressure (β2) are measured.” for “response.”

[7] = tested on: β-adrenergic receptor (β2); assay: β-adrenergic receptor blocking activity in vivo, isoproterenol agonist, decrease in diastolic blood pressure (β2); settings: anesthetized dog, iv
Protocol: as §2, with “response. […] Two responses, increase in cardiac rate (β1) and decrease in diastolic blood pressure (β2) are measured.” for “response.”

Row | Structure (SMILES) | Kb [2] [nM] | pA2 β [2] | pA2 α [1] | pA2 BaCl2 [3] | Fall in Blood Pressure After: 1 hour [4] [mm Hg] | DR10 (α) [5] [mg/kg iv] | DR10 (β1), increase in cardiac rate [6] [mg/kg iv] | DR10 (β2), decrease in diastolic blood pressure [7] [mg/kg iv] | Fall in Blood Pressure After: 4 hours [4] [mm Hg]
1 | CCOc1ccc(C(O)CN2CCN(c3ccccc3)CC2)cc1C(N)=O.Cl (stereo not drawn) [Compound 13, 2-ethoxy-5-[1-hydroxy-2-(4-phenyl-1-piperazinyl)ethyl]benzamide monohydrochloride] | 5370 | – | 6.27 | 4.67 | – | – | – | – | –
2 | CC(CCc1ccccc1)NC(C)C(O)c1ccc(O)cc1 (stereo not drawn) [nylidrine, reference compound] | – | stimulant | – | – | – | – | – | – | –
3 | Cl.NC(=O)c1cc(C(O)CN2CCN(c3cccc(C(F)(F)F)c3)CC2)ccc1O (stereo not drawn) [Compound 3, 2-hydroxy-5-[1-hydroxy-2-[4-[3-(trifluoromethyl)phenyl]-1-piperazinyl]ethyl]benzamide monohydrochloride] | 126 | – | 6.33 | 5.74 | – | – | – | – | –
4 | CNC(=O)c1cc(C(O)CN2CCN(c3ccc(OC)cc3)CC2)ccc1O.Cl.O (stereo not drawn) [Compound 9, 2-hydroxy-5-[1-hydroxy-2-[4-(4-methoxyphenyl)-1-piperazinyl]ethyl]-N-methylbenzamide monohydrochloride hydrate] | 6760 | – | 5.47 | 4.82 | – | – | – | – | –
5 | Cl.NC(=O)c1cc(C(O)CN2CCN(c3ccc(Cl)cc3)CC2)ccc1O.O (stereo not drawn) [Compound 5, 5-[2-[4-(4-chlorophenyl)-1-piperazinyl]-1-hydroxyethyl]-2-hydroxybenzamide monohydrochloride, monohydrate] | 676 | – | 6.87 | 4.58 | 49 | – | – | – | 56
6 | COc1ccc(C(O)CN2CCN(c3ccccc3)CC2)cc1C(N)=O.Cl (stereo not drawn) [Compound 12, 5-[1-hydroxy-2-(4-phenyl-1-piperazinyl)ethyl]-2-methoxybenzamide monohydrochloride] | > 10000 | – | 6.54 | 4.19 | 33 | – | – | – | 25
7 | COc1ccc(N2CCN(CC(O)c3ccc(O)c(C(N)=O)c3)CC2)cc1.Cl.Cl (stereo not drawn) [Compound 4, 2-hydroxy-5-[1-hydroxy-2-[4-(4-methoxyphenyl)-1-piperazinyl]ethyl]benzamide dihydrochloride] | 1450 | – | 6.13 | < 4.28 | – | – | – | – | –
8 | Cc1ccc(N(CC2=NCCN2)c2cccc(O)c2)cc1 [phentolamine, reference compound] | – | – | – | – | – | 2.65 | – | – | –

Second part, led by results:

Row | Kb [2] [nM] | pA2 β [2] | Structure (SMILES) | pA2 α [1] | pA2 BaCl2 [3] | Fall in Blood Pressure After: 1 hour [4] [mm Hg] | DR10 (α) [5] [mg/kg iv] | DR10 (β1), increase in cardiac rate [6] [mg/kg iv] | DR10 (β2), decrease in diastolic blood pressure [7] [mg/kg iv] | Fall in Blood Pressure After: 4 hours [4] [mm Hg]
9 | 724 | – | Cc1ccccc1N1CCN(CC(O)c2ccc(O)c(-c3nnn[nH]3)c2)CC1.Cl.O (stereo not drawn) [Compound 14, α-(4-Hydroxy-3-1H-tetrazol-5-ylphenyl)-4-(2-methylphenyl)-1-piperazineethanol Monohydrochloride Monohydrate] | 7.56 | < 4 | 48 | – | – | – | –
10 | 162 | – | COC(=O)c1cc(C(O)CN2CCN(c3ccccc3C)CC2)ccc1O.Cl (stereo not drawn) [Compound 1, methyl 2-hydroxy-5-[1-hydroxy-2-[4-(2-methylphenyl)-1-piperazinyl]ethyl]benzoate hydrochloride] | 7.45 | 6.06 | – | – | – | – | –
11 | – | stimulant | Cl.NC(=O)c1cc(C(O)CN2CCN(c3ccccc3)CC2)ccc1O.O (stereo not drawn) [Compound 6, 2-hydroxy-5-[1-hydroxy-2-(4-phenyl-1-piperazinyl)ethyl]benzamide monohydrochloride hydrate] | 7.04 | 4.19 | – | – | – | – | –
12 | 200 | – | Cc1ccccc1N1CCN(CC(O)c2ccc(O)c(C(N)=O)c2)CC1.Cl (stereo not drawn) [Compound 2, 2-hydroxy-5-[1-hydroxy-2-[4-(2-methylphenyl)-1-piperazinyl]ethyl]benzamide monohydrochloride] | 7.57 | 5.73 | 48 | 1.09 | 15.3 | > 10 | 37
13 | 4270 | – | Cl.NC(=O)c1cc(C(O)CN2CCN(c3ccccn3)CC2)ccc1O.O (stereo not drawn) [Compound 8, 2-hydroxy-5-[1-hydroxy-2-[4-(2-pyridinyl)-1-piperazinyl]ethyl]benzamide monohydrochloride hydrate] | 6.08 | 3.90 | – | – | – | – | –
14 | 468 | – | Cc1ccccc1N1CCN(CC(O)c2ccc(O)c(C(=O)NCC(C)(C)C)c2)CC1.Cl (stereo not drawn) [Compound 11, N-(2,2-dimethylpropyl)-2-hydroxy-5-[1-hydroxy-2-[4-(2-methylphenyl)-1-piperazinyl]ethyl]benzamide monohydrochloride] | 7.21 | 6.65 | 41 | – | – | – | 32
15 | 363 | – | COc1ccccc1N1CCN(CC(O)c2ccc(O)c(C(N)=O)c2)CC1.Cl (stereo not drawn) [Compound 7, 2-hydroxy-5-[1-hydroxy-2-[4-(2-methoxyphenyl)-1-piperazinyl]ethyl]benzamide monohydrochloride] | 7.42 | 4.87 | 45 | – | – | – | 35
16 | – | stimulant | CNC(=O)c1cc(C(O)CN2CCN(c3ccccc3OC)CC2)ccc1O.Cl.O (stereo not drawn) [Compound 10, 2-hydroxy-5-[1-hydroxy-2-[4-(2-methoxyphenyl)-1-piperazinyl]ethyl]-N-methylbenzamide monohydrochloride monohydrate] | 7.95 | 5.02 | 44 | – | – | – | 52
